Source: ChEMBL document CHEMBL1159210, “The arenarans, sesquiterpene ethers from the marine sponge Dysidea arenaria” (J Nat Prod, 1995)
Converted amounts (≈) assume the structure as drawn. The source made the active and inactive calls. The calls are words filed in the database; no cut-off is given here.

Key:
Type in all cases: functional, cell-based
[1] = test system: HT-29; test: Cytotoxicity against human HT-29 cells
[2] = test system: P388; test: Cytotoxicity against mouse P388 cells
[3] = test system: A549; test: Cytotoxicity against human A549 cells
[4] = test system: HCT-29; test: Cytotoxicity against human HCT29 cells

How did the IC50 [1] turn out when `C/C1=C/CO[C@@]2(C)CCCC(C)(C)[C@@H]2CC1` [ARENARAN A] was run?
Its IC50 is 9.11 µg/mL (≈ 41 µM).

And the IC50 [2]?
The IC50 was 3.17 µg/mL (≈ 14.3 µM).

What about the IC50 [3] of the same compound?
Its IC50 is 9.51 µg/mL (≈ 42.8 µM).

What about the IC50 [4] of the same compound?
Its IC50 is 5.28 µg/mL (≈ 23.7 µM).

For `CC1(C)CCC[C@]2(C)OC[C@H]3O[C@@]3(C)CC[C@@H]12`, which Activity [1] is on record?
The Activity was “inactive”.

What about the Activity [2] of the same compound?
The Activity was “inactive”.

And the Activity [3]?
Its Activity is “inactive”.

And the Activity [4]?
Its Activity is “inactive”.
